According to ChEMBL document CHEMBL4483862, “Open-source discovery of chemical leads for next-generation chemoprotective antimalarials” (2018):

System: Plasmodium berghei
Test: Luciferase/luciferin-expressing antifolate-resistant parasites were used to infect a culture of HepG2 cells that were pre-incubated with compounds. Infected hepatocytes emit light due to the luciferase reaction. Assay results are presented as the percent inhibition of light emission compared to control. […]
Assay type: functional
Details: sporozoite; for IC90: read-out: LUCIFERASE INFECTION ASSAY - IC90
[1] = read-out: LUCIFERASE INFECTION ASSAY - IC50

SMILES | IC90 | also measured
Cc1nn2c(=O)cc(-c3ccccc3)[nH]c2c1-c1ccc(F)cc1 | 1.16 µM | IC50 (HEPG2TOX_HILL_SLOPE 1.12, HEPG2TOX_R_SQUARED 0.564, PBLUC_HILL_SLOPE 22.2, PBLUC_R_SQUARED 0.649, read-out: LUCIFERASE INFECTION ASSAY - IC50): 1.05 µM
CN(C)c1ccc(CNC(=O)C2CCN(C(=O)NCc3ccco3)CC2)cc1 | > 10 µM | IC50 [1]: > 10 µM
Cc1ccccc1NC(=S)N/N=C/c1ccccc1[N+](=O)[O-] | 3.66 µM | IC50 (HEPG2TOX_HILL_SLOPE 11.4, HEPG2TOX_R_SQUARED 0.668, PBLUC_HILL_SLOPE 15.4, PBLUC_R_SQUARED 0.358, read-out: LUCIFERASE INFECTION ASSAY - IC50): 3.17 µM
Nc1ncc(-c2ccc(F)cc2F)cc1-c1cccc(C(F)(F)F)c1 | > 9.42 µM | IC50 (PBLUC_HILL_SLOPE 3.4, PBLUC_R_SQUARED 0.237, read-out: LUCIFERASE INFECTION ASSAY - IC50): 7.55 µM
NNC(=O)c1cc2ccc3ccccc3c2s1 | > 13.6 µM | IC50 [1]: > 13.6 µM
CCCCc1nc2ccccc2n1CC(=O)Nc1cc(S(=O)(=O)N(C)C)ccc1OC | > 10 µM | IC50 (HEPG2TOX_HILL_SLOPE 7.99, HEPG2TOX_R_SQUARED 0.0779, PBLUC_HILL_SLOPE 2.22, PBLUC_R_SQUARED 0.125, read-out: LUCIFERASE INFECTION ASSAY - IC50): > 10 µM
Cc1cc(C)n2ncc(C(=O)Nc3cccc(/C=C/c4ccccn4)c3)c2n1 | 8.17 µM | IC50 (PBLUC_HILL_SLOPE 1.28, PBLUC_R_SQUARED 0.742, read-out: LUCIFERASE INFECTION ASSAY - IC50): 1.46 µM
CCCCn1c(N)c(N(CC(C)C)C(=O)c2cc(Br)c(Br)s2)c(=O)[nH]c1=O | 9.14 µM | IC50 [1]: 8.31 µM
CCN(C(=O)CN(Cc1ccccc1)S(=O)(=O)/C=C/c1ccccc1)c1cccc2ccccc12 | > 10 µM | IC50 (HEPG2TOX_HILL_SLOPE 0.0751, HEPG2TOX_R_SQUARED 0.254, read-out: LUCIFERASE INFECTION ASSAY - IC50): > 10 µM
FC(F)Oc1ccc(NC(=S)NNC(=S)Nc2ccc(Cl)cc2)cc1 | 4.51 µM | IC50 (HEPG2TOX_HILL_SLOPE 2.66, HEPG2TOX_R_SQUARED 0.926, PBLUC_HILL_SLOPE 1.61, PBLUC_R_SQUARED 0.703, read-out: LUCIFERASE INFECTION ASSAY - IC50): 1.16 µM
CNc1nc2cnc(-c3ccc(F)cc3)cc2n1Cc1ccc(OC)c(OC)c1 | 3.97 µM | IC50 (PBLUC_HILL_SLOPE 14.4, PBLUC_R_SQUARED 0.339, read-out: LUCIFERASE INFECTION ASSAY - IC50): 3.41 µM
NC(=O)c1ccsc1NC(=O)Cc1coc2ccc3ccccc3c12 | > 10 µM | IC50 (FFLUC_HILL_SLOPE 2.43, FFLUC_R_SQUARED 0.812, HEPG2TOX_HILL_SLOPE 2.74, HEPG2TOX_R_SQUARED 0.883, PBLUC_HILL_SLOPE 2.33, PBLUC_R_SQUARED 0.39, read-out: LUCIFERASE INFECTION ASSAY - IC50): 5.74 µM
CCCn1c(-c2cccs2)nc2c(c(=O)c3ccccc3n2C)c1=O | 3.69 µM | IC50 (PBLUC_HILL_SLOPE 10.5, PBLUC_R_SQUARED 0.782, read-out: LUCIFERASE INFECTION ASSAY - IC50): 3 µM
Cc1ccc(-c2csc3ncn(CC(=O)c4cc(C)n(C5CCS(=O)(=O)C5)c4C)c(=O)c23)cc1 (stereo not drawn) | > 10 µM | IC50 [1]: > 10 µM
CN1N=C2c3ccccc3CCC2C1c1ccc(Cl)cc1 (stereo not drawn) | 4 µM | IC50 (PBLUC_HILL_SLOPE 2.13, PBLUC_R_SQUARED 0.455, read-out: LUCIFERASE INFECTION ASSAY - IC50): 1.42 µM
CC1CCN(CC(O)COC2CC(C)CC(C)(C)C2)CC1 (stereo not drawn) | > 9.88 µM | IC50 [1]: > 9.88 µM
NC(=O)c1ccc(-c2cc(-c3cc(F)c(F)c(F)c3)cnc2N)cc1 | > 9.61 µM | IC50 [1]: > 9.61 µM
CC(C)Oc1cccc(Nc2ncc(C(=O)c3cccc(-c4ccncc4)c3)[nH]2)c1 | 3.9 µM | IC50 (HEPG2TOX_HILL_SLOPE 3.28, HEPG2TOX_R_SQUARED 0.825, PBLUC_HILL_SLOPE 4.08, PBLUC_R_SQUARED 0.607, read-out: LUCIFERASE INFECTION ASSAY - IC50): 2.27 µM
Cc1cccc(Cn2nc(C(C)(C)C)cc2-c2nnc(SCC(=O)c3ccccc3)o2)c1 | > 7.39 µM | IC50 (FFLUC_HILL_SLOPE 16.7, FFLUC_R_SQUARED 0.464, PBLUC_HILL_SLOPE 10.3, PBLUC_R_SQUARED 0.0963, read-out: LUCIFERASE INFECTION ASSAY - IC50): > 7.39 µM
CC1CCN(S(=O)(=O)c2ccc(C(=O)NCc3cccc(C(F)(F)F)c3)cc2)CC1 | > 10 µM | IC50 (FFLUC_HILL_SLOPE 13.2, FFLUC_R_SQUARED 0.207, read-out: LUCIFERASE INFECTION ASSAY - IC50): > 10 µM

SMILES | IC90 | also measured
O=C(OCc1cc(=O)oc2cc(O)ccc12)c1c2c(nc3ccccc13)/C(=C/c1ccc([N+](=O)[O-])cc1)CCC2 | > 10 µM | IC50 (FFLUC_HILL_SLOPE 2.06, FFLUC_R_SQUARED 0.63, PBLUC_HILL_SLOPE 4.67, PBLUC_R_SQUARED 0.673, read-out: LUCIFERASE INFECTION ASSAY - IC50): 7.7 µM
CCCn1nc(C(=O)N2CCCc3ccccc32)c2ccccc2c1=O | > 10 µM | IC50 [1]: > 10 µM
Cc1ccc(N(CC(=O)Nc2ccc(Cl)cc2)S(C)(=O)=O)cc1Cl | > 8.52 µM | IC50 (HEPG2TOX_HILL_SLOPE 0.0682, HEPG2TOX_R_SQUARED 0.0747, PBLUC_HILL_SLOPE 6.57, PBLUC_R_SQUARED 0.017, read-out: LUCIFERASE INFECTION ASSAY - IC50): > 8.52 µM
C/C(=N\n1c(-c2cccc(Br)c2)cs/c1=N\c1ccc(Cl)cc1Cl)c1ccc2c(c1)OCO2 | > 10 µM | IC50 (HEPG2TOX_HILL_SLOPE 4.14, HEPG2TOX_R_SQUARED 0.54, PBLUC_HILL_SLOPE 9.69, PBLUC_R_SQUARED 0.311, read-out: LUCIFERASE INFECTION ASSAY - IC50): 9.72 µM
c1ccc(-c2cn3c(-c4ccc5ncccc5c4)cnc3cn2)cc1 | 2.41 µM | IC50 (HEPG2TOX_HILL_SLOPE 1.31, HEPG2TOX_R_SQUARED 0.967, PBLUC_HILL_SLOPE 1.9, PBLUC_R_SQUARED 0.856, read-out: LUCIFERASE INFECTION ASSAY - IC50): 0.759 µM
CN(C)c1ccc(-c2ccc3nnc(-c4ccccc4)n3c2)cc1 | 4.59 µM | IC50 (HEPG2TOX_HILL_SLOPE 1.89, HEPG2TOX_R_SQUARED 0.955, PBLUC_HILL_SLOPE 2.66, PBLUC_R_SQUARED 0.575, read-out: LUCIFERASE INFECTION ASSAY - IC50): 2.01 µM
CCOC(=O)c1nnsc1[S+]([O-])c1ccc(Cl)cc1 (stereo not drawn) | > 10.4 µM | IC50 [1]: > 10.4 µM
Cc1cn2c(CNCCc3ccc(N4CCCCC4)cc3)c(C)nc2s1 | 0.606 µM | IC50 (HEPG2TOX_HILL_SLOPE 1.99, HEPG2TOX_R_SQUARED 0.618, PBLUC_HILL_SLOPE 85.2, PBLUC_R_SQUARED 0.531, read-out: LUCIFERASE INFECTION ASSAY - IC50): 0.591 µM
CC(=O)Nc1ccc(Nc2nc3cc(S(=O)(=O)Nc4cccc(Cl)c4)ccc3o2)cc1 | 9.97 µM | IC50 (HEPG2TOX_HILL_SLOPE 0.957, HEPG2TOX_R_SQUARED 0.862, PBLUC_HILL_SLOPE 2.24, PBLUC_R_SQUARED 0.74, read-out: LUCIFERASE INFECTION ASSAY - IC50): 3.74 µM
CC1=CC(C)(C)N(C(=O)c2ccc(F)cc2)c2cc3c(cc21)OCO3 | > 9.72 µM | IC50 (PBLUC_HILL_SLOPE 1.83, PBLUC_R_SQUARED 0.549, read-out: LUCIFERASE INFECTION ASSAY - IC50): 6.14 µM
CC(C)c1ccc(NC(=O)CCCc2ccccc2)cc1 | > 11.7 µM | IC50 [1]: > 11.7 µM
Cc1cccc(Nc2nc(S(=O)(=O)c3ccc(Cl)cc3)c(Cl)s2)c1 | > 10 µM | IC50 (HEPG2TOX_HILL_SLOPE 2.2, HEPG2TOX_R_SQUARED 0.986, PBLUC_HILL_SLOPE 2.95, PBLUC_R_SQUARED 0.805, read-out: LUCIFERASE INFECTION ASSAY - IC50): 5.17 µM
Nc1nccnc1C(=O)NNC(=O)COc1ccccc1Cc1ccccc1 | 3.67 µM | IC50 (HEPG2TOX_HILL_SLOPE 1.59, HEPG2TOX_R_SQUARED 0.794, PBLUC_HILL_SLOPE 15.4, PBLUC_R_SQUARED 0.41, read-out: LUCIFERASE INFECTION ASSAY - IC50): 3.18 µM
c1ccc(Sc2ncnc3sccc23)nc1 | 6.79 µM | IC50 (PBLUC_HILL_SLOPE 117, PBLUC_R_SQUARED 0.0329, read-out: LUCIFERASE INFECTION ASSAY - IC50): 6.66 µM
N#Cc1c(Cl)cccc1Oc1ccc(S(=O)(=O)Oc2c(Cl)cccc2Cl)cc1 | > 7.26 µM | IC50 (PBLUC_HILL_SLOPE 2.67, PBLUC_R_SQUARED 0.0667, read-out: LUCIFERASE INFECTION ASSAY - IC50): 6.81 µM
O=C(NC1CC1)c1ccc(CN(Cc2ccco2)Cc2nc(-c3ccc(F)cc3)no2)cc1 | 0.482 µM | IC50 (PBLUC_HILL_SLOPE 9.42, PBLUC_R_SQUARED 0.908, read-out: LUCIFERASE INFECTION ASSAY - IC50): 0.382 µM
Cc1cc(C)n2nc(C(=O)OCC(=O)N(C)Cc3ccsc3)nc2n1 | > 10 µM | IC50 [1]: > 10 µM
COc1ccccc1C(=O)Nc1ccc2c(c1)nc(CCN1CCCC1)n2C | > 8.72 µM | IC50 (PBLUC_HILL_SLOPE 41.2, PBLUC_R_SQUARED 0.16, read-out: LUCIFERASE INFECTION ASSAY - IC50): 8.38 µM
COc1cc(NC(=O)c2cc(N3CCN(c4ccccn4)CC3)ncn2)cc(OC)c1OC | 1.61 µM | IC50 (HEPG2TOX_HILL_SLOPE 1.23, HEPG2TOX_R_SQUARED 0.824, PBLUC_HILL_SLOPE 2.21, PBLUC_R_SQUARED 0.872, read-out: LUCIFERASE INFECTION ASSAY - IC50): 0.596 µM
